Assay results published in patent publication US20140147410A1, “MICROBICIDE COMBINATIONS CONTAINING SILVER” (priority 2011, published 2014).

Legend:
Assay type in all cases: cell-based
[1] = tested on: Aspergillus niger ATCC# 16404; assay: HRMIC synergy test, mold; settings: A. niger, biocide alone
Method: (§1) The combinations were evaluated for synergy by determining the synergy index (S.I.) of the combination. The Synergy index calculated is based on minimum inhibitory concentrations (MIC) of two biocides (A and B) alone and in combinations. The lower the S.I. value, the better the synergy. High Resolution Minimum Inhibitory Concentration (HRMIC) method was performed to determine the potential for synergy of the combinations. The tests organisms were gram negative bacteria (Pseudomonas aeruginosa), Gram positive bacteria (Staphylococcus aureus), yeast (Candida albicans) and mold (Aspergillus niger). Contact time for the bacteria was 24 and 48 hours, yeast was 48 and 72 hrs, 3 and 7 days for mold. The test was carried out in 96well microtiter plates. […] Ca/CA+Cb/CB=Synergy Index(“SI”) • CA=concentration of compound A in ppm, acting alone, which produced an end point (MIC of Compound A). • Ca=concentration of compound A in ppm, in the mixture, which produced an end point. • CB=concentration of compound B in ppm, acting alone, which produced an end point (MIC of Compound B). • Cb=concentration of compound B in ppm, in the mixture, which produced an end point. When the sum of Ca/CA and Cb/CB is greater than one, antagonism is indicated. […] [table] [table]

[2] = tested on: Staphylococcus aureus ATCC# 6538; assay: HRMIC synergy test, Gram positive bacteria; settings: S. aureus, biocide alone
Method: as §1

[3] = tested on: Pseudomonas aeruginosa ATCC # 15442; assay: HRMIC synergy test, gram negative bacteria; settings: Ps. aeruginosa, contact time 24 hrs, biocide alone
Method: as §1

[4] = tested on: Candida albicans ATCC#10203; assay: HRMIC synergy test, yeast; settings: C. albicans, biocide alone
Method: as §1

Cc1ccc(S(=O)(=O)C(I)I)cc1 [DIMTS, diiodomethyl-p-tolylsulfone]
MIC alone (CA / CB) ([1]; contact time 3rd day): 0.3 ppm AI | MIC alone (CA / CB) ([1]; contact time 7th day): 0.5 ppm AI | MIC alone (CA / CB) ([2]; contact time 24 hrs): 30 ppm AI | MIC alone (CA / CB) ([2]; contact time 48 hrs): 400 ppm AI | MIC alone (CA / CB) [3]: >1000 ppm AI | MIC alone (CA / CB) ([4]; contact time 48 hrs): 20 ppm AI | MIC alone (CA / CB) ([4]; contact time 72 hrs): 30 ppm AI
